The source of these data is patent publication US6624190B2, “2-acylamino-2-deoxy-glucono-1,5-lactones, a method for the production thereof, compositions containing them, and uses thereof” (Universite Pierre et Marie Curie (Paris VI), priority 1998, dated 2003).

One data set deals with T1, chicken lysozyme (Gallus gallus, UniProt P00698).
T1 construct: purchased Sigma L-6876
The experiment in a line: Lysozyme inhibition, Micrococcus lysodeikticus walls substrate. In kind it is biochemical. The procedure: The enzyme studied was 0.5 g/l chicken lysozyme (Sigma, L-6876) in a 100 mM, pH 6.5 phosphate buffer and the substrate was constituted by 17 mg/100 ml of Micrococcus lysodeikticus walls in suspension in the same buffer.
Protocol: 100 μl of enzymatic solution was diluted with 400 μl of inhibitor solution. This was left at ambient temperature for 5 or 10 minutes. 40 μl of mixture was added to 3 ml of the substrate suspension in a spectrophotometer cell. The optical density was recorded at 450 nm every 10 seconds for 3 minutes.

Data set [1] can be described thus: Determination of critical micellar concentration by surface tension (Wilhelmy plate method). In kind it is physicochemical. How it is done:
The surface tension γ of a liquid in contact with air was measured at 25° C. by the Wilhelmy plate method (Prolabo TENSIMAT n3 tensometer). This consisted of plunging a vertical platinum strip (19.54 mm long) into a liquid then gradually withdrawing it, monitoring the tension exerted on the strip by the liquid film. The maximum value recorded before complete detachment of the strip represented the surface tension, expressed in mN/m. After calibrating the apparatus (calibration at two points: the zero value with the strip in air and a value of 50.2 mN/m with the strip tested with a weight of 200 mg), the surface tensions of solutions containing increasing quantities of the surfactant were recorded (measurements repeated three times). The critical micellar concentration was obtained from conventional graphs of γ=f(logC) where C represents the concentration in mol/l.
The change in surface tension γ (in mN/m) of an aqueous solution (volume=10 ml) was monitored as a function of the quantities of dissolved product (C, in Mol/l) (A=C(O)C7H15 and R2=CH3). The critical micellar concentration corresponds to the concentration above which the surface tension becomes a constant.

The subject of data set [2] is bovine kidney β—N-acetyl glucosaminidase (EC 3.2.1.52). Description: N-acetyl glucosaminidase (NaGase) enzymatic inhibition, pNphNAG substrate. Type of data set: biochemical. How it is done:
The enzyme used as a reference was bovine kidney β—N-acetyl glucosaminidase (EC 3.2.1.52) (Sigma A-2415) and its substrate was p-nitrophenyl 2-acetamido-2-deoxy glucopyranoside (Acros 22941-1000) (pNphNAG). The commercially available enzyme, in the form of a suspension in a 3.2 M solution of (NH4)2SO4, was centrifuged at 13000 rpm for 5 minutes and the residue was taken up in 1 ml of water. The solution obtained was the mother enzymatic solution.
Protocol: 100 μl of the enzymatic solution diluted to 1/10 was mixed with 100 μl of pH 4.2 citrate buffer and 300 μl of inhibitor solution (or water for the reference) and incubated at 37° C. for 5 minutes in a spectrophotometer cell. After adding 500 μl of substrate (5 mM or 2.5 mM), incubation was continued for 8 minutes at 37° C. and the optical density at 400 nm was monitored. The quantity of p-nitrophenol liberated by the enzymatic reaction was determined by correlating the optical density to a calibration curve (OD at 400 nm=f([p-nitrophenol])). The N-acetyl glucosaminidase activity unit was defined as the quantity of enzyme required to liberate one μmole of p-nitrophenol per minute under the conditions cited above.
I50 is defined as the concentration of compound capable of inhibiting 50% of the enzymatic activity under the assay conditions.
We colorimetrically monitored the quantities of p-nitrophenol liberated (in 10^−3 μmol/mn) by the action of N-acetyl glucosaminidase (NaGase) on pNphNAG (2.5 mM) in the presence of increasing quantities of (i) (concentration C in mM).
In order to determine the inhibition constant K1, we used Dixon's graphical method, which consisted of plotting the inverse of the initial velocity (1 Iv0) of the enzymatic reaction against the inhibitor concentration (C, in μM) for two different substrate concentrations. The abscissa of the intersection point of the two straight lines corresponds to —K1.

The conditions of data set [3]: comparison values; cited from earlier work.

T1 sequence (P00698 19-147): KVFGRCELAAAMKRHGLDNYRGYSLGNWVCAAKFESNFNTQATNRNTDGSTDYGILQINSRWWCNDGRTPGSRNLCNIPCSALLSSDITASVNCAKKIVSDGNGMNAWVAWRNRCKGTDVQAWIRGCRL

As to `CCCCCCCC(=O)OC[C@H]1OC(=O)[C@H](NC(C)=O)[C@@H](O)[C@@H]1O` [(i), 2-acetamido-2-deoxy-6—O-octanoyl-glucono-1,5-lactone], the “effect on lysozyme activity” value on chicken lysozyme (0.1 mg/ml lysozyme, compound 1.8 mM) was “No difference was detected”. Also, the affinity for lysozyme result on chicken lysozyme (summary) is recorded as “no affinity”. The “critical micellar concentration (CMC)” value in data set [1] (aqueous solution, 25° C.) is 25 mM. Besides, in data set [1] (reduction from 71 mN/m for concentrations of 0 to 25 mM (8.6 g/l)), the “surface tension of water reduced to” value is on record as 30 mN/m. Further, the nature of inhibition entry in data set [2] (Dixon diagram) is recorded as “competitive”. Moreover, the Ki in data set [2] (Dixon's graphical method, substrate 2.5 mM and 5 mM, read-out: inhibition constant K1) is approximately 3 µM. Besides, the IC50 in data set [2] (pNphNAG 2.5 mM, pH 4.2 citrate buffer, 37° C., read-out: I50) is approximately 7 µM.

Consider `CCCCCCCNC(=O)OC[C@H]1O[C@H](OC)[C@H](O)[C@@H](O)[C@@H]1O` [HECAMEG], for which the “critical micellar concentration (CMC) of commercially available glycosylated surfactants” value in data set [3] was 22 mM.

For the compound `CCCCCCCCO[C@@H]1O[C@H](CO)[C@@H](O)[C@H](O)[C@H]1O` [octyl glucoside, n-octyl glucoside], in data set [3], the “critical micellar concentration (CMC) of commercially available glycosylated surfactants” value is given as 18 mM.
